Measurements as given in patent US7459414B2, “Herbicides” (Syngenta Crop Protection, Inc., priority 2002, dated 2008).

How the values were obtained:
Type in all cases: in vivo
Lolium (Lol) [1] = test: Example B4 post-emergence herbicidal action, MERGE oil additive 0.7% (Table B4); design: key: 1=total damage; 9=no action; settings: 500 g of active substance per hectare; applied at 3- to 6-leaf stage; MERGE oil additive 0.7% by weight of the spray mixture; evaluation 3 weeks after application; scale of nine ratings
Procedure: (§1) Monocotyledonous and dicotyledonous weeds are grown in standard soil in plastics pots under greenhouse conditions. The test substances are applied to the test plants at the 3- to 6-leaf stage. The test substances are applied at a rate of application of 500 g of active substance per hectare in the form of an aqueous suspension (prepared from a 25% wettable powder (Example F3, b)) or in the form of an emulsion (prepared from a 25% emulsifiable concentrate (Example F1, c)) (500 liters of water/ha). The evaluation is carried out 3 weeks after application, using a scale of nine ratings (1=total damage, 9=no action). Ratings of from 1 to 4 (especially from 1 to 3) indicate good to very good herbicidal action. Herbicidal Action After the Emergence of the Plants (Post-emergence Action) of Compounds of the Present Invention (for Description See Example B2) Test plants: Avena (Ave), Lolium (Lol), Setaria (Set).

Setaria (Set) [2] = test: as above; design: key: 1=total damage; 9=no action; settings: 500 g of active substance per hectare; applied at 3- to 6-leaf stage; MERGE oil additive 0.7% by weight of the spray mixture; evaluation 3 weeks after application; scale of nine ratings
Procedure: as §1

Avena (Ave) [3] = test: as above; design: key: 1=total damage; 9=no action; settings: 500 g of active substance per hectare; applied at 3- to 6-leaf stage; MERGE oil additive 0.7% by weight of the spray mixture; evaluation 3 weeks after application; scale of nine ratings
Procedure: as §1

Brachiaria (Bra) [4] = test: Example B1 pre-emergence herbicidal action (comparison test); design: key: 1=total damage; 9=no action; settings: 500 g of active ingredient/ha; 3 weeks after application; scale of nine ratings, 1 to 4 = good to very good action
Procedure: (§2) Monocotyledonous and dicotyledonous weeds are sown in plastics pots in standard soil. Immediately after sowing, the test substances are applied in the form of an aqueous suspension (prepared from a 25% wettable powder (Example F3, b)) or in the form of an emulsion (prepared from a 25% emulsifiable concentrate (Example F1, c)) (500 liters of water/ha). The rate of application is 500 g of active substance/ha. The test plants are then grown in the greenhouse under optimum conditions. The evaluation is carried out 3 weeks after application, using a scale of nine ratings (1=total damage, 9=no action). Ratings of from 1 to 4 (especially from 1 to 3) indicate good to very good herbicidal action. Test plants: Alopecurus (Alo), Avena (Ave), Lolium (Lol), Setaria (Set), Panicum (Pan), Sorghum (Sor), Digitaria (Dig), Echinochloa (Ech) and Brachiaria (Bra).

Lolium (Lol) [5] = test: as above; design: key: 1=total damage; 9=no action; settings: 500 g of active ingredient/ha; 3 weeks after application; scale of nine ratings, 1 to 4 = good to very good action
Procedure: as §2

Echinochloa (Ech) = test: as above; design: key: 1=total damage; 9=no action; settings: 500 g of active ingredient/ha; 3 weeks after application; scale of nine ratings, 1 to 4 = good to very good action
Procedure: as §2

Setaria (Set) [6] = test: as above; design: key: 1=total damage; 9=no action; settings: 500 g of active ingredient/ha; 3 weeks after application; scale of nine ratings, 1 to 4 = good to very good action
Procedure: as §2

Avena (Ave) [7] = test: as above; design: key: 1=total damage; 9=no action; settings: 500 g of active ingredient/ha; 3 weeks after application; scale of nine ratings, 1 to 4 = good to very good action
Procedure: as §2

Sorghum (Sor) [8] = test: as above; design: key: 1=total damage; 9=no action; settings: 500 g of active ingredient/ha; 3 weeks after application; scale of nine ratings, 1 to 4 = good to very good action
Procedure: as §2

Panicum (Pan) [9] = test: as above; design: key: 1=total damage; 9=no action; settings: 500 g of active ingredient/ha; 3 weeks after application; scale of nine ratings, 1 to 4 = good to very good action
Procedure: as §2

Alopecurus (Alo) [10] = test: as above; design: key: 1=total damage; 9=no action; settings: 500 g of active ingredient/ha; 3 weeks after application; scale of nine ratings, 1 to 4 = good to very good action
Procedure: as §2

Digitaria (Dig) [11] = test: as above; settings: 500 g of active ingredient/ha; 3 weeks after application; scale of nine ratings, 1 to 4 = good to very good action
Procedure: as §2

Brachiaria (Bra) [12] = test: Example B2 post-emergence herbicidal action (comparison test); design: key: 1=total damage; 9=no action; settings: 250 g of active ingredient/ha; 3- to 6-leaf stage; 3 weeks after application; scale of nine ratings, 1 to 4 = good to very good action
Procedure: (§3) Monocotyledonous and dicotyledonous weeds are grown in standard soil in plastics pots under greenhouse conditions. The test substances are applied to the test plants at the 3- to 6-leaf stage. […] suspension (prepared from a 25% wettable powder (Example F3, b)) or in the form of an emulsion (prepared from a 25% emulsifiable concentrate (Example F1, c)) (500 liters of water/ha). The evaluation is carried out 3 weeks after application, using a scale of nine ratings (1=total damage, 9=no action). Ratings of from 1 to 4 (especially from 1 to 3) indicate good to very good herbicidal action. Test plants: Alopecurus (Alo), Avena (Ave), Lolium (Lol), Setaria (Set), Panicum (Pan), Sorghum (Sor), Digitaria (Dig), Echinocloa (Ech) and Brachiaria (Bra).

Lolium (Lol) [13] = test: as above; design: key: 1=total damage; 9=no action; settings: 250 g of active ingredient/ha; 3- to 6-leaf stage; 3 weeks after application; scale of nine ratings, 1 to 4 = good to very good action
Procedure: as §3

Echinocloa (Ech) = test: as above; design: key: 1=total damage; 9=no action; settings: 250 g of active ingredient/ha; 3- to 6-leaf stage; 3 weeks after application; scale of nine ratings, 1 to 4 = good to very good action
Procedure: as §3

Setaria (Set) [14] = test: as above; design: key: 1=total damage; 9=no action; settings: 250 g of active ingredient/ha; 3- to 6-leaf stage; 3 weeks after application; scale of nine ratings, 1 to 4 = good to very good action
Procedure: as §3

Avena (Ave) [15] = test: as above; design: key: 1=total damage; 9=no action; settings: 250 g of active ingredient/ha; 3- to 6-leaf stage; 3 weeks after application; scale of nine ratings, 1 to 4 = good to very good action
Procedure: as §3

Sorghum (Sor) [16] = test: as above; design: key: 1=total damage; 9=no action; settings: 250 g of active ingredient/ha; 3- to 6-leaf stage; 3 weeks after application; scale of nine ratings, 1 to 4 = good to very good action
Procedure: as §3

Panicum (Pan) [17] = test: as above; design: key: 1=total damage; 9=no action; settings: 250 g of active ingredient/ha; 3- to 6-leaf stage; 3 weeks after application; scale of nine ratings, 1 to 4 = good to very good action
Procedure: as §3

Alopecurus (Alo) [18] = test: as above; design: key: 1=total damage; 9=no action; settings: 250 g of active ingredient/ha; 3- to 6-leaf stage; 3 weeks after application; scale of nine ratings, 1 to 4 = good to very good action
Procedure: as §3

Digitaria (Dig) [19] = test: as above; settings: 250 g of active ingredient/ha; 3- to 6-leaf stage; 3 weeks after application; scale of nine ratings, 1 to 4 = good to very good action
Procedure: as §3

Lolium (Lol) [20] = test: Example B3 pre-emergence herbicidal action, MERGE oil additive 0.7% (Table B3); design: key: 1=total damage; 9=no action; settings: 500 g of active substance/ha; MERGE oil additive 0.7% by weight of the spray mixture; evaluation 3 weeks after application; scale of nine ratings
Procedure: (§4) Monocotyledonous and dicotyledonous weeds are sown in standard soil in plastics pots. Immediately after sowing, the test substances are applied in the form of an aqueous suspension (prepared from a 25% wettable powder (Example F3, b)) or in the form of an emulsion (prepared from a 25% emulsifiable concentrate (Example F1, c)) (500 liters of water/ha). The rate of application is 500 g of active substance/ha. The test plants are then grown in the greenhouse under optimum conditions. The evaluation is carried out 3 weeks after application, sing a scale of nine ratings (1=total damage, 9=no action). Ratings of from 1 to 4 (especially from 1 to 3) indicate good to very good herbicidal action. Test plants: Avena (Ave), Lolium (Lol), Setaria (Set).

Setaria (Set) [21] = test: as above; design: key: 1=total damage; 9=no action; settings: 500 g of active substance/ha; MERGE oil additive 0.7% by weight of the spray mixture; evaluation 3 weeks after application; scale of nine ratings
Procedure: as §4

Avena (Ave) [22] = test: as above; design: key: 1=total damage; 9=no action; settings: 500 g of active substance/ha; MERGE oil additive 0.7% by weight of the spray mixture; evaluation 3 weeks after application; scale of nine ratings
Procedure: as §4

## CCc1cc(C)cc(CC)c1-c1c(O)n2n(c1=O)CC(OC(C)C(=O)OC)CC2 (stereo not drawn) [1.26]
Lolium (Lol) [1]
  Post-emergence action, rating, Lol: 2
Setaria (Set) [2]
  Post-emergence action, rating, Set: 1
Avena (Ave) [3]
  Post-emergence action, rating, Ave: 1

## CCc1cc(C)cc(CC)c1-c1c(O)n2n(c1=O)CC(OCC(C)C)CC2 (stereo not drawn) [1.11]
Lolium (Lol) [1]
  Post-emergence action, rating, Lol: 1
Setaria (Set) [2]
  Post-emergence action, rating, Set: 1
Avena (Ave) [3]
  Post-emergence action, rating, Ave: 1

## CCc1cc(C)cc(CC)c1-c1c(O)n2n(c1=O)CC(OCC(=O)O)CC2 (stereo not drawn) [1.19]
Lolium (Lol) [1]
  Post-emergence action, rating, Lol: 1
Setaria (Set) [2]
  Post-emergence action, rating, Set: 1
Avena (Ave) [3]
  Post-emergence action, rating, Ave: 1

## CCc1cc(C)cc(CC)c1-c1c(O)n2n(c1=O)CC(O)C(O)C2 (stereo not drawn) [1.39]
Lolium (Lol) [1]
  Post-emergence action, rating, Lol: 1
Setaria (Set) [2]
  Post-emergence action, rating, Set: 1
Avena (Ave) [3]
  Post-emergence action, rating, Ave: 1

## Cc1cc(C)c(-c2c(OC(=O)C(C)(C)C)n3n(c2=O)CCCC3)c(C)c1 [compound A, reference compound]
Brachiaria (Bra) [4]
  Pre-emergence action rating, Bra: 3
Lolium (Lol) [5]
  Pre-emergence action, rating, Lol: 1
Echinochloa (Ech)
  Pre-emergence action rating, Ech: 5
Setaria (Set) [6]
  Pre-emergence action, rating, Set: 2
Avena (Ave) [7]
  Pre-emergence action, rating, Ave: 4
Sorghum (Sor) [8]
  Pre-emergence action rating, Sor: 4
Panicum (Pan) [9]
  Pre-emergence action rating, Pan: 1
Alopecurus (Alo) [10]
  Pre-emergence action rating, Alo: 2
Digitaria (Dig) [11]
  Pre-emergence action rating, Dig: 4
Brachiaria (Bra) [12]
  Post-emergence action rating, Bra: 2
Lolium (Lol) [13]
  Post-emergence action, rating, Lol: 2
Echinocloa (Ech)
  Post-emergence action rating, Ech: 1
Setaria (Set) [14]
  Post-emergence action, rating, Set: 2
Avena (Ave) [15]
  Post-emergence action, rating, Ave: 3
Sorghum (Sor) [16]
  Post-emergence action rating, Sor: 3
Panicum (Pan) [17]
  Post-emergence action rating, Pan: 1
Alopecurus (Alo) [18]
  Post-emergence action rating, Alo: 3
Digitaria (Dig) [19]
  Post-emergence action rating, Dig: 2

## CCc1cc(C)cc(CC)c1-c1c(OC(=O)C(C)(C)C)n2n(c1=O)CCC(F)(F)CC2 [1.43]
Lolium (Lol) [1]
  Post-emergence action, rating, Lol: 2
Setaria (Set) [2]
  Post-emergence action, rating, Set: 2
Avena (Ave) [3]
  Post-emergence action, rating, Ave: 1

## CCc1cc(C)cc(CC)c1-c1c(OC(=O)C(C)(C)C)n2n(c1=O)CCCC2 [1.02]
Brachiaria (Bra) [4]
  Pre-emergence action rating, Bra: 1
Lolium (Lol) [5]
  Pre-emergence action, rating, Lol: 1
Echinochloa (Ech)
  Pre-emergence action rating, Ech: 1
Setaria (Set) [6]
  Pre-emergence action, rating, Set: 1
Avena (Ave) [7]
  Pre-emergence action, rating, Ave: 1
Sorghum (Sor) [8]
  Pre-emergence action rating, Sor: 1
Panicum (Pan) [9]
  Pre-emergence action rating, Pan: 1
Alopecurus (Alo) [10]
  Pre-emergence action rating, Alo: 1
Lolium (Lol) [1]
  Post-emergence action, rating, Lol: 1
Setaria (Set) [2]
  Post-emergence action, rating, Set: 1
Avena (Ave) [3]
  Post-emergence action, rating, Ave: 1
Lolium (Lol) [20]
  Pre-emergence action, rating, Lol: 1
Setaria (Set) [21]
  Pre-emergence action, rating, Set: 1
Avena (Ave) [22]
  Pre-emergence action, rating, Ave: 1
Digitaria (Dig) [11]
  Pre-emergence action rating, Dig: 4
Brachiaria (Bra) [12]
  Post-emergence action rating, Bra: 1
Lolium (Lol) [13]
  Post-emergence action, rating, Lol: 1
Echinocloa (Ech)
  Post-emergence action rating, Ech: 1
Setaria (Set) [14]
  Post-emergence action, rating, Set: 1
Avena (Ave) [15]
  Post-emergence action, rating, Ave: 1
Sorghum (Sor) [16]
  Post-emergence action rating, Sor: 1
Panicum (Pan) [17]
  Post-emergence action rating, Pan: 1
Alopecurus (Alo) [18]
  Post-emergence action rating, Alo: 1
Digitaria (Dig) [19]
  Post-emergence action rating, Dig: 2

## CCc1cc(C)cc(CC)c1-c1c(O)n2n(c1=O)CC(O)C(Cl)C2 (stereo not drawn) [1.10]
Lolium (Lol) [1]
  Post-emergence action, rating, Lol: 1
Setaria (Set) [2]
  Post-emergence action, rating, Set: 1
Avena (Ave) [3]
  Post-emergence action, rating, Ave: 1

## CCc1cc(C)cc(CC)c1-c1c(OC(=O)C(C)(C)C)n2n(c1=O)CC(OC)C(OC)C2 (stereo not drawn) [1.08]
Lolium (Lol) [1]
  Post-emergence action, rating, Lol: 1
Setaria (Set) [2]
  Post-emergence action, rating, Set: 1
Avena (Ave) [3]
  Post-emergence action, rating, Ave: 1
